Assay results reported in US4914086A, “Method for treating African human and veterinary trypanosomiases” (priority 1987, dated 1990).

Test system: T. b. brucei LUMP 1001
Experiment: CNS model, T. b. brucei LUMP 1001 infection in mice (Table 5)
Type: in vivo, Trypanosoma brucei brucei (in Swiss-Webster mice)
Conditions: for efficacy in CNS model in words: LUMP 1001
Description: T. b. brucei EATRO 110 isolate was maintained as described (Bacchi, C. J., H. C. Nathan, S. H. Hutner, P. P. McCann and A. Sjoerdsma; Polyamine metabolism: a potential chemotherapeutic target in trypanosomes. Science 210: 332-334, 1980). It produces an acute, rapidly fatal parasitemia which is lethal to mice 3-5 days after inoculation. Two T. B. brucei strains, TREU 667 and LUMP 1001 developed by Jennings and coworkers (Jennings, F. W., D. D. Whitelaw and G. M. Urquhart; The relationship between duration of infection with Trypanosoma brucei in mice and the efficacy of chemotherapy. Parasitology 75: 143-153, 1977/Jennings, F. W. and G. D. Gray; Relapsed parasitemia following chemotherapy of chronic T. brucei infections in mice and its relation to cerebral trypanosomes; Contr. Microbiol. Immunol. 7 147-154, 1983) were used as CNS models. Both produce infections which are refractory to Berenil® (diminazene aceturate) and develop within 21 days after inoculation. They are not usually fatal until >40 days after inoculation. LUMP 1001 causes a more virulent CNS infection than TREU 667, and is regarded as more difficult to cure (Jennings, F. W. and G. D. Gray. Relapsed parasitemia following chemotherapy of chronic T. brucei infections in mice and its relation to cerebral trypanosomes. Contr. Microbiol. Immunol. 7 147-154, 1983).
The models for […] nervous system infections used TREU 667 and LUMP 1001 strains which were stored frozen and passaged once in rats before infection of mice. Maintenance and use of these screens were as described (Clarkson, A. B. Jr., C. J. Bacchi, G. H. Mellon, H. C. Nathan, P. P. McCann and A. Sjoerdsma. Efficacy of DFMO+blemoycin in a mouse model of central nervous system African trypanosomiasis. Proc. Natl. Acad. Sci. USA. 80: 5729-5733, 1983/Clarkson, A. B. Jr., E. J. Biene, C. J. Bacchi, P. P. McCann, S. H. Hutner and A. Sjoerdsma. New drug combination for experimental late stage African trypanosomiasis: DFMO with suramin. Am. J. Trop. Med. Hyg. 33: 1073-1077, 1984/Dube, D. K., G. Mpimbaza, A. C. Allison, E. Lederer and L. Rovis. Antitrypanosomal activity of sinefungin, Am. J. Trop. Med. Hyg. 32: 31-33, 1983/Fish, W. R., J. J. Marr, R. L. Berens, D. L. Looker, D. J. Nelson, S. LaFon and A. E. Balber. Inosine analogs as chemotherapeutic agents for African trypanosomes: metabolism in trypanosomes and efficacy in tissue culture. Anti-microb. Ag. Chemother. 27: 33-36, 1985/Clazer, R. I., and L. S. Lloyd. Effects of 8-azaadenosine and formycin on cell lethality and the synthesis and methylation of nucleic acids in human colon carcinoma cells in culture. Biochem. Pharmacol. 31: 3207-3214, 1982/Bacchi, C. J., H. C. Nathan, A. B. Clarkson, Jr., E. J. Bienen, A. J. Bitonti, P. P. McCann and A. Sjoerdsma. Activity of the ornithine decarboxylase inhibitors DL-α-difluoromethylornithine and monofluormethyldehydroornithine methylester alone and in combination with suramin against Trypanosoma brucei brucei central nervous system models, Am. J. Trop. Med. Hyg. (in press)). Briefly, groups of 100-120 mice were infected and the infections allowed to develop until day 21, when the animals were separated into groups of 10 and therapy commenced. Controls were treated with Berenil (40 mg/kg) on day 21. […] Parasitemia was followed by examining tail vein blood smears once weekly. Animals which had relapsed were removed from cages.

SMILES | # Cured/Total (50 mg/kg i.p., 7 days) | % Cured (50 mg/kg i.p., 7 days) [%] | Avg. Day of Relapse (Range) (50 mg/kg i.p., 7 days) | # Cured/Total (100 mg/kg i.p., 7 days) | % Cured (100 mg/kg i.p., 7 days) [%] | Avg. Day of Relapse (Range) (100 mg/kg i.p., 7 days) | # Cured/Total (250 mg/kg i.p., 7 days) | % Cured (250 mg/kg i.p., 7 days) [%] | Avg. Day of Relapse (Range) (250 mg/kg i.p., 7 days) | efficacy in CNS model in words | # Cured/Total (2.5 mg/kg i.p., 3 days) | % Cured (2.5 mg/kg i.p., 3 days) [%] | Avg. Day of Relapse (Range) (2.5 mg/kg i.p., 3 days) [days] | # Cured/Total (5 mg/kg i.p., 3 days) | % Cured (5 mg/kg i.p., 3 days) [%] | Avg. Day of Relapse (Range) (5 mg/kg i.p., 3 days) [days] | # Cured/Total (10 mg/kg i.p., 3 days) | % Cured (10 mg/kg i.p., 3 days) [%] | Avg. Day of Relapse (Range) (10 mg/kg i.p., 3 days)
O=c1[nH]cnc2c([C@@H]3O[C@H](CO)[C@@H](O)[C@H]3O)c[nH]c12 [9-DINO, 7-beta-D-ribofuranosyl-4-oxo-3H, 5H-pyrrolo (3,2-d) pyrimidine] | 0/10 | 0 | 36 (35-44) Day | 0/9 | 0 | 38 (35-44) Day | 0/10 | 0 | 49 (35-63) Day | did not cure CNS infections | – | – | – | – | – | – | – | – | –
Nc1ncnc2c1ncn2[C@@H]1O[C@H](C[C@@H](N)CC[C@H](N)C(=O)O)[C@@H](O)[C@H]1O [Sinefungin, 6,9-Diamino-1-(6-amino-9H-purin-9-yl)-1,5,6,7,8,9-hexadeoxy-beta-D-ribo-decofuranuronic acid] | – | – | – | – | – | – | – | – | – | did not produce complete cures | 0/10 | 0 | 35 | 0/10 | 0 | 35 | 0/10 | 0 | 39 (35-71) Day
